Source: patent US12213483B1, “Herbicidal compositions comprising trifludimoxazin” (BASF SE, priority 2024, dated 2025)
Values joined by “and” are separate entries in the source; they are usually repeats but may differ in a detail not shown here. Identical values can stand only once.

Experiments:
Type in all cases: in vivo
[1] = tested on: Sorghum halapense (SORHA); test: Post-emergence application in greenhouse trials, SORHA
Protocol: (§1) In the examples below, using the method of S. R. Colby (1967) “Calculating synergistic and antagonistic responses of herbicide combinations”, Weeds 15, p. 22ff., the value E, which is expected if the activity of the individual active compounds is only additive, was calculated: E=X+Y−(X·Y/100) • where • X=percent activity using active herbicide A at an application rate a; • Y=percent activity using active trifludimoxazin at an application rate b; • E=expected activity (in %) by A+B at application rates a+b.
(§2) If the value found experimentally is higher than the value E calculated according to Colby, a synergistic effect is present.
(§3) The culture containers used were plastic pots containing loamy sand with approximately 3.0% of humus as substrate. The seeds of the test plants were sown separately for each species.
(§4) For the post-emergence treatment, the test plants were grown to a plant height of from 3 to 15 cm, depending on the plant habit, and only then treated with the active compounds which had been suspended or emulsified in water. To this end, the test plants were either sown directly, and grown in the same containers, or they were first grown separately as seedlings and transplanted into the test containers a few days prior to treatment.
(§5) Depending on the species, the plants were kept at 10-25° C. and 20-35° C., respectively.
(§6) The test period extended over 2 to 4 weeks. During this time, the plants were tended and their response to the individual treatments was evaluated.
(§7) Evaluation was carried out using a scale from 0 to 100. 100 means no emergence of the plants, or complete destruction of at least the above-ground parts, and 0 means no damage or normal course of growth. A good herbicidal activity is given at values of at least 70, and very good herbicidal activity is given at values of at least 85.
(§8) In the greenhouse trials, unless indicated otherwise, herbicide A, trifludimoxazin and saflufenacil were formulated (50 g/I) and applied with addition of 1% MSO (methylated seed oil) as adjuvant. The solvent used was water (200 I/ha).

Setaria italica (SETIT) = test: Post-emergence application in field trials, SETIT; settings: 22 DAT; water volume 200 l/ha; growth stage 21-31; 12.5 g ai/ha
Protocol: as §1, §2
(§9) On field test sites, natural weed infestation or seeded weeds were treated post-emergence of the weeds.
(§10) In the field trials, the weedy plants were treated as indicated below.
(§11) Herbicide A-1 (342 g/I), trifludimoxazin (500 g/I) and saflufenacil (342 g/I) were, together with addition of 1% MSO (methylated seed oil) as adjuvant (unless indicated otherwise), formulated in water as distribution medium as indicated and sprayed with commercial flat fan nozzles.
(§12) In the following experiments, the herbicidal activity for the individual herbicidal compositions (solo and mixture applications) was assessed at the indicated days after treatment (DAT). […]

[2] = tested on: Abutilon theophrasti (ABUTH); test: Post-emergence application in greenhouse trials, ABUTH
Protocol: as §1, §2, §3, §4, §5, §6, §7, §8

[3] = tested on: Digitaria sanguinales (DIGSA); test: Post-emergence application in greenhouse trials, DIGSA
Protocol: as §1, §2, §3, §4, §5, §6, §7, §8

Sinapis alba (SINAL) = test: Post-emergence application in field trials, SINAL; settings: 7 DAT; water volume 200 l/ha; growth stage 14-21; height 11-12 cm; 12.5 g ai/ha
Protocol: as §1, §2, §9, §10, §11, §12

[4] = tested on: Brachiaria decumbens (BRADC); test: Post-emergence application in greenhouse trials, BRADC; settings: GS 13
Protocol: as §1, §2, §3, §4, §5, §6, §7, §8

[5] = tested on: Euphorbia heterophylla (EPHHL); test: Post-emergence application in field trials, EPHHL; settings: 43 DAT; water volume 200 l/ha; growth stage 16-18; height 10-15 cm; 12.5 g ai/ha
Protocol: as §1, §2, §9, §10, §11, §12

[6] = tested on: Amaranthus palmeri (AMAPA); test: Post-emergence application in field trials, AMAPA; settings: 21 DAT; water volume 200 l/ha; 0.25 l/ha Dash MSO Max; pre plant burndown; height 30 cm; B-1 12.5 g ai/ha
Protocol: as §1, §2, §9, §10, §11
(§13) In the following experiments, the herbicidal activity for the individual herbicidal compositions (solo and mixture applications) was assessed at the indicated days after treatment (DAT). The assessments for the damage on undesired weeds caused by the composition was carried out using a scale from 0 to 100%, compared to the untreated control plants. Here, 0 means no damage and 100 means complete destruction of the plants.
(§14) Herbicide A-1 (100 g/l) and trifludimoxazin (500 g/l) were, together with addition of 1% MSO (methylated seed oil) as adjuvant (unless indicated otherwise), formulated in water as distribution medium as indicated and sprayed with commercial flat fan nozzles.

Hordeum vulgare (HORVS) = test: Post-emergence application in field trials, HORVS; settings: water volume 100 l/ha, pre plant burndown, 18 g ai/ha
Protocol: as §1, §2, §9, §10, §11, §13, §14

Avena fatua (AVEFA) [7] = test: Post-emergence application in field trials, AVEFA; settings: 29 DAT; water volume 100 l/ha; pre plant burndown; growth stage 14-23; height 24-40 cm; 18 g ai/ha
Protocol: as §1, §2, §9, §10, §11, §13, §14

Avena fatua (AVEFA) [8] = test: Post-emergence application in greenhouse trials, AVEFA
Protocol: as §1, §2, §3, §4, §5, §6, §7, §8

[9] = tested on: Spermacoce latifolia (BOIFL); test: Post-emergence application in field trials, BOIFL; settings: 8 DAT; water volume 200 l/ha; growth stage 12-16; height 3-10 cm; 12.5 g ai/ha
Protocol: as §1, §2, §9, §10, §11, §13, §14

Setaria faberi (SETFA) = test: Post-emergence application in greenhouse trials, SETFA; settings: GS 13
Protocol: as §1, §2, §3, §4, §5, §6, §7, §8

[10] = tested on: Brachiaria decumbens (BRADC); test: Post-emergence application in field trials, BRADC; settings: 3 DAT; water volume 200 l/ha; growth stage 21-31; height 3-20 cm; 12.5 g ai/ha
Protocol: as §1, §2, §9, §10, §11, §12

[11] = tested on: Echinocloa crus-galli (ECHCG); test: Post-emergence application in greenhouse trials, ECHCG; settings: GS 13
Protocol: as §1, §2, §3, §4, §5, §6, §7, §8

## C#CCN1C(=O)C(F)(F)Oc2cc(F)c(-n3c(=O)n(C)c(=S)n(C)c3=O)cc21 [B-1, trifludimoxazin]
[1]; 7 DAT, B-1 formulated as 500 g/l, GS 14, B-1 1 g ai/ha
  % Herbicidal activity: 15%
[1]; 7 DAT, B-1 formulated as 500 g/l, GS 14, B-1 2 g ai/ha
  % Herbicidal activity: 35%
[1]; 20 DAT, B-1 formulated as 500 g/l, GS 14, B-1 2 g ai/ha
  % Herbicidal activity: 30%
[1]; 20 DAT, GS 14, B-1 0.9 g ai/ha
  % Herbicidal activity: 65%
[1]; 20 DAT, GS 14, B-1 1.1 g ai/ha
  % Herbicidal activity: 65%
[1]; 20 DAT, growth stage 14, 0.3 g ai/ha
  % Herbicidal activity: 10%
Setaria italica (SETIT)
  % Herbicidal activity: 27%
[2]; 6 DAT, GS 33, B-1 0.2 g ai/ha
  % Herbicidal activity: 20%
[2]; 6 DAT, GS 33, B-1 0.3 g ai/ha
  % Herbicidal activity: 20%
[2]; 6 DAT, GS 33, B-1 0.4 g ai/ha
  % Herbicidal activity: 35%
[2]; 20 DAT, GS 33, B-1 0.3 g ai/ha
  % Herbicidal activity: 0%
[2]; 20 DAT, growth stage 33, 0.2 g ai/ha
  % Herbicidal activity: 0%
[3]; 7 DAT, GS 12, B-1 0.3 g ai/ha
  % Herbicidal activity: 15% and 10%
[3]; 7 DAT, GS 12, B-1 0.4 g ai/ha
  % Herbicidal activity: 15%
[3]; 7 DAT, GS 12, B-1 0.8 g ai/ha
  % Herbicidal activity: 45%
[3]; 19 DAT, B-1 formulated as 500 g/l, GS 13, B-1 2 g ai/ha
  % Herbicidal activity: 40%
Sinapis alba (SINAL)
  % Herbicidal activity: 82%
[4]; 7 DAT, B-1 formulated as 500 g/l, B-1 1 g ai/ha
  % Herbicidal activity: 15%
[4]; 7 DAT, B-1 formulated as 500 g/l, B-1 2 g ai/ha
  % Herbicidal activity: 15%
[4]; 7 DAT, B-1 0.2 g ai/ha
  % Herbicidal activity: 10%
[4]; 7 DAT, B-1 0.3 g ai/ha
  % Herbicidal activity: 10%
[4]; 7 DAT, B-1 0.4 g ai/ha
  % Herbicidal activity: 10%
[4]; 7 DAT, B-1 0.8 g ai/ha
  % Herbicidal activity: 45%
[4]; 20 DAT, B-1 formulated as 500 g/l, B-1 2 g ai/ha
  % Herbicidal activity: 10%
[4]; 20 DAT, B-1 0.3 g ai/ha
  % Herbicidal activity: 5%
[5]
  % Herbicidal activity: 60%
[6]
  % Herbicidal activity: 20%
Hordeum vulgare (HORVS); 28 DAT, growth stage 21-24, height 15-37 cm
  % Herbicidal activity: 0%
Hordeum vulgare (HORVS); 29 DAT, growth stage 15-24, height 25-45 cm
  % Herbicidal activity: 0%
Avena fatua (AVEFA) [7]
  % Herbicidal activity: 0%
Avena fatua (AVEFA) [8]; 7 DAT, GS 13, B-1 0.2 g ai/ha
  % Herbicidal activity: 20%
Avena fatua (AVEFA) [8]; 20 DAT, B-1 formulated as 500 g/l, GS 12, B-1 1 g ai/ha
  % Herbicidal activity: 15%
Avena fatua (AVEFA) [8]; 20 DAT, growth stage 13, 0.9 g ai/ha
  % Herbicidal activity: 20%
[9]
  % Herbicidal activity: 68%
Setaria faberi (SETFA); 7 DAT, B-1 0.9 g ai/ha
  % Herbicidal activity: 45%
Setaria faberi (SETFA); 20 DAT, B-1 0.3 g ai/ha
  % Herbicidal activity: 15%
Setaria faberi (SETFA); 20 DAT, B-1 0.9 g ai/ha
  % Herbicidal activity: 70%
[10]
  % Herbicidal activity: 43%
[11]; 7 DAT, B-1 0.8 g ai/ha
  % Herbicidal activity: 40%
[11]; 20 DAT, B-1 1.1 g ai/ha
  % Herbicidal activity: 60%
